Here are results for ten compounds from ChEMBL document CHEMBL4699553, “Synthesis and biological evaluation of chalcone derivatives as neuroprotective agents against glutamate-induced HT22 mouse hippocampal neuronal cell death” (Bioorg Med Chem Lett, 2020).

The source made the active and inactive calls. The rule behind the calls is not given here.

For data set [1], the system named is HT-22. Kind of data set: Neuroprotective activity against glutamate-induced cell death in mouse HT22 cells assessed as increase in cell viability at 0.15 to 38.46 uM incubated for 12 hrs by calcein-AM dye and propidium iodide staining based analysis. The class given is functional. The settings on record: dose microM 0.15-38.46, time 12.0 hrs.
Data set [2] has as its target T1, Nuclear factor erythroid 2-related factor 2 (Homo sapiens) (UniProt Q16236).
T1 sequence (whole entry): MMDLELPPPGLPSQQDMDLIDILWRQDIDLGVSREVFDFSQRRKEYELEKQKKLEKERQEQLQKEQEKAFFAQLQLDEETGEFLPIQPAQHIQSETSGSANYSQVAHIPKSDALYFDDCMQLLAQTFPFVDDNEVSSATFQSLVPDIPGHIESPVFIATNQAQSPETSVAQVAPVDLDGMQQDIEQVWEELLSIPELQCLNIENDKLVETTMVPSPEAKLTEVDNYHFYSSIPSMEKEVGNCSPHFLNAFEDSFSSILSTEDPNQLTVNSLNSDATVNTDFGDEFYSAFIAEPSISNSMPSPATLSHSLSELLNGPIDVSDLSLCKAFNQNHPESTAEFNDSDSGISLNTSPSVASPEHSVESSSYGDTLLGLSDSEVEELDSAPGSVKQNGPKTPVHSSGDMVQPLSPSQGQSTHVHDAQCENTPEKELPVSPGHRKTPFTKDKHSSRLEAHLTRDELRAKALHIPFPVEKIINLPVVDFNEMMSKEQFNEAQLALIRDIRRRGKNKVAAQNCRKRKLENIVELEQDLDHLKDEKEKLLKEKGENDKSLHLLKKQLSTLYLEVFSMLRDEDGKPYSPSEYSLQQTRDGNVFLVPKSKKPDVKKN
In words: Activation of Nrf2 in human HepG2 cells co-transfected with ARE luciferase gene assessed as increase in ARE-driven luciferase activity by luciferase reporter gene assay. The format is cell-based. The settings on record: filed as activator. For orientation: A reporter such as luciferase makes a cellular process visible.

Data set [3] has as its system HT-22. In words: Neuroprotective activity against glutamate-induced cell death in mouse HT22 cells assessed as cell viability at 12.8 uM incubated for 12 hrs by calcein AM dye and propidium iodide staining based analysis (reference value: 50%). The class given is functional. The conditions noted are these: read-out: Activity.
Data set [4] can be described thus: Antioxidant activity assessed as DPPH radical scavenging activity. The class given is functional.
Data set [5] concerns HT-22. Kind of data set: Neuroprotective activity against glutamate-induced cell death in mouse HT22 cells assessed as live cells at 12.8 uM by Annexin-V FITC and propidium iodide staining based flow cytometric analysis (reference value: 15.03 %). The class given is functional. A general note: A flow cytometer gives signals particle by particle.
Data set [6] has as its system HT-22. In words: Neuroprotective activity against glutamate-induced cell death in mouse HT22 cells assessed as early apoptotic cells at 12.8 uM by Annexin-V FITC and propidium iodide staining based flow cytometric analysis (reference value: 79.84 %). The format is functional.
For data set [7], the system named is HT-22. In words: Neuroprotective activity against glutamate-induced cell death in mouse HT22 cells assessed as late apoptotic cells at 12.8 uM by Annexin-V FITC and propidium iodide staining based flow cytometric analysis (reference value: 4.62 %). The format is functional.
In data set [8] the test system is HT-22. In words: Neuroprotective activity against glutamate-induced cell death in mouse HT22 cells assessed as necrotic cells at 12.8 uM by Annexin-V FITC and propidium iodide staining based flow cytometric analysis (reference value: 0.51 %). The class given is functional.
Data set [9] concerns HT-22. In words: Neuroprotective activity against glutamate-induced oxidative stress in mouse HT22 cells assessed as reduction in intracellular ROS accumulation at 12.8 uM by DCF-DA staining based fluorescence assay. The format is functional, cell-based.
The test system of data set [10] is HT-22. In words: Neuroprotection against glutamate-induced Ca2+ homeostasis disruption in mouse HT22 cells assessed as reduction in intracellular Ca2+ uptake at 1.4 to 12.8 uM by Fluo3-AM staining based fluorescent microscopic method. The class given is functional, cell-based. The settings on record: dose microM 1.4-12.8.
In data set [11] the test system is HT-22. In words: Inhibition of glutamate-induced JNK activation in mouse HT22 cells assessed as reduction in phosphorylated JNK protein level by Western blot analysis. The format is cell-based. The conditions noted are these: dose microM 1.4-12.8.
In data set [12] the test system is HT-22. Kind of data set: Inhibition of glutamate-induced ERK activation in mouse HT22 cells assessed as reduction in phosphorylated ERK protein level by Western blot analysis. The settings on record: dose microM 1.4-12.8. The class given is cell-based. In general terms: In western blotting, separated proteins are transferred to a membrane and probed.
For data set [13], the target named is MAP kinase p38 (Mus musculus) (UniProt P47811+O08911+Q9WUI1+Q9Z1B7). Kind of data set: Inhibition of glutamate-induced p38 MAPK activation in mouse HT22 cells assessed as reduction in phosphorylated p38 MAPK protein level by Western blot analysis. The class given is cell-based. The settings on record: HT-22, dose microM 1.4-12.8.
Data set [14] concerns HT-22. Kind of data set: Neuroprotection against glutamate-induced apoptosis in mouse HT22 cells assessed as reduction in bax protein level at 1.4 to 12.8 uM by Western blot analysis. The class given is functional, cell-based. The conditions noted are these: dose microM 1.4-12.8.
For data set [15], the system named is HT-22. Kind of data set: Neuroprotection against glutamate-induced apoptosis in mouse HT22 cells assessed as increase in bcl2 protein level at 1.4 to 12.8 uM by Western blot analysis. The settings on record: dose microM 1.4-12.8. The class given is functional, cell-based.
The subject of data set [16] is HT-22. In words: Neuroprotection against glutamate-induced apoptosis in mouse HT22 cells assessed as decrease in translocation of AIF to nucleus at 12.8 uM by Western blot analysis. The format is functional, cell-based.
The next data set deals with Caenorhabditis elegans. In words: Neuroprotective activity against 6-OHDA induced neuronal dysfunction in Caenorhabditis elegans N2 assessed as increase in number of body bending at 100 uM incubated for 1 hr and measured for 20 sec. The class given is functional, organism-based.
Data set [17] in a line: Induction of apoptosis in mouse HT22 cells assessed as viable cells at 12.8 uM by Annexin-V FITC and propidium iodide staining based flow cytometric analysis (reference value: 87.05 %). The format is cell-based, HT-22. The conditions noted are these: read-out: Activity.
The subject of data set [18] is HT-22. In words: Induction of apoptosis in mouse HT22 cells assessed as early apoptotic cells at 12.8 uM by Annexin-V FITC and propidium iodide staining based flow cytometric analysis (reference value: 3.37 %). The conditions noted are these: ht-22, 12.8 µM. The class given is cell-based.
Data set [19] deals with HT-22. In words: Induction of apoptosis in mouse HT22 cells assessed as late apoptotic cells at 12.8 uM by Annexin-V FITC and propidium iodide staining based flow cytometric analysis (reference value: 7.05 %). The settings on record: ht-22, 12.8 µM. The format is cell-based.
For data set [20], the system named is HT-22. In words: Induction of apoptosis in mouse HT22 cells assessed as necrotic cells at 12.8 uM by Annexin-V FITC and propidium iodide staining based flow cytometric analysis (reference value: 2.53 %). The class given is cell-based. The settings on record: ht-22, 12.8 µM.
A further data set relates to Hippocampus. In words: Inhibition of erastin induced ferroptotic-cell death in rat hippocampal culture by propidium iodide uptake based fluorescence analysis. The format is functional, tissue-based.
The test system of data set [21] is HT-22. Kind of data set: Neuroprotection against glutamate-induced apoptosis in mouse HT22 cells assessed as decrease in translocation of AIF to nucleus at 12.8 uM by immunostaining analysis. The class given is functional, cell-based.

As to `COc1ccc2c(c1)C(=O)/C(=C/c1cccc(O)c1)CC2`, the outcome in the data set on HT-22 [1] was inactive.
`COc1ccc2c(c1)C(=O)/C(=C/c1c[nH]c3ccccc13)CC2`: the outcome (in [2]; with HT-22 [9]; in the data set on HT-22 [10]; in the data set with HT-22 [14]; in the data set on HT-22 [15]; in the data set with HT-22 [16]) was Active. For the same compound, the result in the data set with Caenorhabditis elegans and with HT-22 [21] was Active. In addition, the values for the viability at 12.8 µM (with HT-22 [3]; in data set [17]) were greater than 80% and 88.2%, respectively. The result in [4] was inactive. Also, the Activity in the data set on HT-22 [5] came out at 91.37%; in the data set with HT-22 [6], 1.03%; with HT-22 [7] it was 5.92%; in the data set on HT-22 [8], 1.68%; in the data set with HT-22 [18] it was 0.95%; with HT-22 [19], 8.72%. Further, the Activity in the data set on HT-22 [20] was 2.08%. The inhibition entry (in the data set with HT-22 [11]; with HT-22 [12]; in data set [13]) was “Dose-dependent effect” throughout. Moreover, the inhibition result in the data set with Hippocampus was “inactive”.
In the case of `COc1ccc2c(c1)C(=O)/C(=C/c1cc(OC)c(Br)c(OC)c1)CC2`, the outcome in the data set on HT-22 [1] was Active.
Same read-out and setting: the entry for `COc1ccc2c(c1)C(=O)/C(=C/c1cc(OC)c(OC)cc1Br)CC2` is “Active”; for `COc1cccc(/C=C2\CCc3ccc(OC)cc3C2=O)c1` it is “Active”; for `COc1ccc2c(c1)C(=O)/C(=C/c1ccc(OC)c(OC)c1)CC2` it is “Active”.
As for `COc1ccc2c(c1)C(=O)/C(=C/c1ccc(N(C)C)cc1)CC2`, in the data set on HT-22 [1], the result was Active.
Turning to `COc1ccc2c(c1)C(=O)/C(=C/c1ccc(O)cc1)CC2`, in the data set on HT-22 [1], the result was inactive.
For the compound `COc1cc(OC)c(/C=C2\CCc3ccc(OC)cc3C2=O)c(OC)c1`, the outcome in the data set with HT-22 [1] was Active.
Same read-out and setting: the entry for `COc1ccc2c(c1)C(=O)/C(=C/c1cc(OC)c(OC)c(OC)c1)CC2` is “Active”.
